Tested on: primary human AML cells
Test: Primary screen: differentiation of primary human AML cells in vitro (CD34/CD15, HTS flow cytometry)
Conditions: for percent gated cells (viability): 2 μM (commercial libraries) or 1 μg/ml (IRIC); for % increase CD34+ (%) / % increase CD34+ (cell counts) / % increase CD34+CD15− (cell counts): compared to DMSO; for % increase CD34+CD15− (%): compared to DMSO ((compound − DMSO)/DMSO*100); for CD34+CD15− cell counts compared to DMSO: in words
Procedure: AML cells were thawed in 37° C. water bath and 1:10 diluted in prewarmed Iscove's modified Dulbecco's medium (IMDM) containing 20% FBS and DNase 100 μg/ml. […] When compounds were added to the culture medium, final DMSO concentrations were 0.1% in all in vitro experiments and 0.01% when cultured cells were transplanted into NSG-mice.
Compounds were tested at 2 μM (commercial libraries) or 1 μg/ml (Medicinal Chemistry Facility, IRIC). […] For validation experiments AML cells were grown in 384-well plates with 3-8 replicates per condition.
Flow cytometry was performed on an LSR™ II cytometer equipped with an HTS-device (BD Bioscience, Primary and Secondary screens and in vitro validation experiments) or on a BD Canto™ II cytometer (BD Bioscience, Xenotransplantation and CellTrace Violet™ experiments). Cells were stained for 30 minutes at 4° C. protected from light if not otherwise indicated (CellTrace Violet™ staining). […] CD34 intensities in flow cytometry plots were set at high levels on day 0 to allow tracing of non-predictable decreases of intensities during 7 days in culture.

CC(=O)Oc1ccc(-c2cc(=O)c3c(OC(C)=O)cc(OC(C)=O)cc3o2)cc1 [UM0121171, Apigenin triacetate]
percent gated cells (viability): 80.10%
% increase CD34+ (%): 48.36%
% increase CD34+ (cell counts): 17.48%
% increase CD34+CD15− (cell counts): 31.61%
% increase CD34+CD15− (%): 66.25%

Cc1cc(=O)oc2cc(O)c(O)cc12 [UM0120835, 4-Methylesculetin]
percent gated cells (viability): 84.90%
% increase CD34+ (%): 22.85%
% increase CD34+ (cell counts): 18.23%
% increase CD34+CD15− (cell counts): 104.34%
% increase CD34+CD15− (%): 111.64%

CC(=O)c1ccc2c(c1)N(CCCN(C)C)c1ccccc1S2.O=C(O)/C=C\C(=O)O [UM0118758, Acetopromazine maleate salt]
% increase CD34+ (%): −0.82%
% increase CD34+ (cell counts): −11.68%
% increase CD34+CD15− (cell counts): 41.15%
% increase CD34+CD15− (%): 57.85%

O=c1cc(-c2ccc(O)cc2)oc2cc(O)cc(O)c12 [UM0118614, Apigenin]
% increase CD34+ (%): 20.12%
% increase CD34+ (cell counts): 22.02%
% increase CD34+CD15− (cell counts): 66.30%
% increase CD34+CD15− (%): 63.93%

2′-beta-Dihydrochalcone [UM0120960]
% increase CD34+ (%): 24.69%
% increase CD34+ (cell counts): 8.21%
% increase CD34+CD15− (cell counts): 41.99%
% increase CD34+CD15− (%): 63.62%

Oc1ccc(C=Cc2cc(O)cc(O)c2)cc1 [UM0118532, Resveratrol]
percent gated cells (viability): 78.00%
% increase CD34+ (%): 22.62%
% increase CD34+ (cell counts): −14.19%
% increase CD34+CD15− (cell counts): 12.57%
% increase CD34+CD15− (%): 60.46%

CC(C)Oc1ccc2c(=O)c(-c3ccccc3)coc2c1 [UM0120559, Ipriflavone]
% increase CD34+ (%): 27.34%
% increase CD34+ (cell counts): 39.89%
% increase CD34+CD15− (cell counts): 54.50%
% increase CD34+CD15− (%): 40.47%

COc1ccc2c(c1)[nH]c1c(C)nccc12.Cl [UM0118303, Harmine hydrochloride]
percent gated cells (viability): 78.60%
% increase CD34+ (%): 8.79%
% increase CD34+ (cell counts): −17.08%
% increase CD34+CD15− (cell counts): 38.52%
% increase CD34+CD15− (%): 81.33%

O=c1cc(-c2ccc(O)c(O)c2)oc2cc(O)cc(O)c12 [UM0118175, Luteolin]
percent gated cells (viability): 79.80%
% increase CD34+ (%): 40.48%
% increase CD34+ (cell counts): 4.97%
% increase CD34+CD15− (cell counts): 27.50%
% increase CD34+CD15− (%): 70.76%

COc1ccc(C2CC(=O)c3ccc(OC)cc3O2)cc1 (stereo not drawn) [UM0120851, Liquiritigenin dimethylether]
percent gated cells (viability): 81.20%
% increase CD34+ (%): 34.97%
% increase CD34+ (cell counts): 31.66%
% increase CD34+CD15− (cell counts): 59.21%
% increase CD34+CD15− (%): 63.25%

OC[C@@H]1CCCN2CCCC[C@H]12 [UM0119416, Lupinine]
% increase CD34+ (%): 10.12%
% increase CD34+ (cell counts): 30.63%
% increase CD34+CD15− (cell counts): 51.77%
% increase CD34+CD15− (%): 28.13%

CCOC(=O)c1c(C)cc(O)c(C)c1O [UM0120789, Methylorsellinic acid ethyl ester]
percent gated cells (viability): 84.00%
% increase CD34+ (%): 22.49%
% increase CD34+ (cell counts): 22.38%
% increase CD34+CD15− (cell counts): 52.88%
% increase CD34+CD15− (%): 52.70%

COc1cc(-c2oc3cc(O)ccc3c(=O)c2O)ccc1O [UM0119468, Geraldol]
percent gated cells (viability): 78.50%
% increase CD34+ (%): 25.29%
% increase CD34+ (cell counts): −41.47%
% increase CD34+CD15− (cell counts): −23.14%
% increase CD34+CD15− (%): 64.06%

C[C@@H]1O[C@@H](O[C@H]2[C@H](Oc3cc(O)c4c(=O)c(O)c(-c5ccc(O)cc5)oc4c3)O[C@H](CO)[C@@H](O)[C@@H]2O)[C@H](O)[C@H](O)[C@H]1O [UM0119289, Kaempferol-7-Neohesperidoside]
% increase CD34+ (%): 12.75%
% increase CD34+ (cell counts): 29.49%
% increase CD34+CD15− (cell counts): 72.47%
% increase CD34+CD15− (%): 50.39%

Nc1ccccc1C(=O)CC(N)C(=O)O (stereo not drawn) [Kynurenine]
CD34+CD15− cell counts compared to DMSO: further reduced

COc1cc(OC)c2c(=O)cc(-c3ccccc3)oc2c1 [UM0121173, 5,7-Dimethoxyflavone]
percent gated cells (viability): 82.00%
% increase CD34+ (%): 29.43%
% increase CD34+ (cell counts): 34.90%
% increase CD34+CD15− (cell counts): 53.11%
% increase CD34+CD15− (%): 46.97%

COc1ccc(-c2cc(=O)c3ccc(O)cc3o2)cc1 [UM0117304, Pratol]
percent gated cells (viability): 82.40%
% increase CD34+ (%): 50.40%
% increase CD34+ (cell counts): 31.59%
% increase CD34+CD15− (cell counts): 47.36%
% increase CD34+CD15− (%): 68.85%

O=c1c(O)c(-c2ccccc2)oc2cc(O)cc(O)c12 [UM0119448, Galangine]
% increase CD34+ (cell counts): −0.57%
% increase CD34+CD15− (cell counts): 23.06%
% increase CD34+CD15− (%): 60.64%

Verteporfin [UM0119121]
% increase CD34+ (%): 15.38%
% increase CD34+ (cell counts): 33.14%
% increase CD34+CD15− (cell counts): 58.17%
% increase CD34+CD15− (%): 37.29%

CC(C)=CCc1c(O)cc2oc(C)cc(=O)c2c1O [UM0121217, Peucenin]
percent gated cells (viability): 83.20%
% increase CD34+ (%): 23.46%
% increase CD34+ (cell counts): 37.27%
% increase CD34+CD15− (cell counts): 94.61%
% increase CD34+CD15− (%): 74.92%

CO[C@@H]1[C@H](OC(=O)/C=C/C=C/C=C/C=C/C(=O)O)CC[C@]2(CO2)[C@H]1[C@@]1(C)O[C@@H]1CC=C(C)C [UM0121512, Fumagillin]
percent gated cells (viability): 78.60%
% increase CD34+ (%): 31.22%
% increase CD34+ (cell counts): −54.59%
% increase CD34+CD15− (cell counts): −46.09%
% increase CD34+CD15− (%): 55.51%

O.O.O=c1c(O)c(-c2ccc(O)c(O)c2)oc2cc(O)cc(O)c12 [UM0118473, Quercetine dihydrate]
% increase CD34+ (%): 15.71%
% increase CD34+ (cell counts): 6.69%
% increase CD34+CD15− (cell counts): 69.64%
% increase CD34+CD15− (%): 83.29%

CCOC(=O)c1oc2c(OC)c(O)cc(O)c2c(=O)c1-c1cc(OC)c(OC)c(OC)c1 [UM0121233, 2-Ethoxycarbonyl-5,7-dihydroxy-8,3′,4′,5′-tetramethoxyisoflavone]
percent gated cells (viability): 86.30%
% increase CD34+ (%): 15.01%
% increase CD34+ (cell counts): 18.21%
% increase CD34+CD15− (cell counts): 50.24%
% increase CD34+CD15− (%): 45.77%

CC[C@H](C)C(=O)O[C@H]1C[C@@H](C)C=C2C=C[C@H](C)[C@H](CC[C@@H]3C[C@@H](O)CC(=O)O3)[C@H]21 [UM0118699, Lovastatin]
percent gated cells (viability): 81.00%
% increase CD34+ (%): 1.88%
% increase CD34+ (cell counts): −14.30%
% increase CD34+CD15− (cell counts): 36.94%
% increase CD34+CD15− (%): 62.41%

COc1cc(-c2ccc(N=Nc3ccc4c(S(=O)(=O)[O-])cc(S(=O)(=O)[O-])c(N)c4c3O)c(OC)c2)ccc1N=Nc1ccc2c(S(=O)(=O)[O-])cc(S(=O)(=O)[O-])c(N)c2c1O.[Na+].[Na+].[Na+].[Na+] [UM0118703, Chicago sky blue 6B]
% increase CD34+ (%): 42.39%
% increase CD34+ (cell counts): 31.67%
% increase CD34+CD15− (cell counts): 42.76%
% increase CD34+CD15− (%): 54.52%

COC(=O)/C(C)=C\CC12OC(C)(C)C3CC(C=C4C(=O)c5c(OC)c6c(c(CC=C(C)C)c5OC431)OC(C)(CCC=C(C)C)C=C6)C2=O (stereo not drawn) [UM0120889, Dimethyl gambogate]
% increase CD34+ (%): 47.72%
% increase CD34+ (cell counts): −50.44%
% increase CD34+CD15− (cell counts): −48.79%
% increase CD34+CD15− (%): 52.62%

CC(C)=CCOc1cc2oc(=O)ccc2cc1O [UM0120947, Prenyletin]
percent gated cells (viability): 81.10%
% increase CD34+ (%): 18.10%
% increase CD34+ (cell counts): 15.58%
% increase CD34+CD15− (cell counts): 56.71%
% increase CD34+CD15− (%): 60.33%

COc1c(-c2ccccc2)oc2c(OC)cccc2c1=O [UM0121168, 3,8-Dimethoxyflavone]
percent gated cells (viability): 80.80%
% increase CD34+ (%): 29.05%
% increase CD34+ (cell counts): 24.97%
% increase CD34+CD15− (cell counts): 53.85%
% increase CD34+CD15− (%): 58.96%

NC(=Nc1ccccc1)NC(=O)c1nc(Cl)c(N)nc1N [UM0120143, Phenamil methanesulfonate]
percent gated cells (viability): 84.10%
% increase CD34+ (%): 30.88%
% increase CD34+ (cell counts): 28.04%
% increase CD34+CD15− (cell counts): 54.83%
% increase CD34+CD15− (%): 58.21%

COc1ccc(-c2cc(=O)c3c(OC(C)=O)cc(OC(C)=O)cc3o2)cc1 [UM0120987, Acacetin diacetate]
percent gated cells (viability): 81.60%
% increase CD34+ (%): 27.58%
% increase CD34+ (cell counts): 22.16%
% increase CD34+CD15− (cell counts): 53.47%
% increase CD34+CD15− (%): 59.88%

N[C@@H](Cc1c[nH]c2ccccc12)C(=O)O [Tryptophan]
CD34+CD15− cell counts compared to DMSO: further reduced

C[C@]12CCC(=O)C=C1CC[C@@H]1[C@@H]2CC[C@]2(C)C(=O)CC[C@@H]12 [UM0119559, 4-Androstene-3,17-dione]
percent gated cells (viability): 82.30%
% increase CD34+ (%): 1.57%
% increase CD34+ (cell counts): −20.76%
% increase CD34+CD15− (cell counts): 20.14%
% increase CD34+CD15− (%): 53.81%

N[C@@H]1C[C@H]1c1ccccc1.N[C@H]1C[C@@H]1c1ccccc1.O=S(=O)(O)O [UM0121497, Tranylcypromine sulfate]
percent gated cells (viability): 76.50%
% increase CD34+ (%): 20.22%
% increase CD34+ (cell counts): −15.83%
% increase CD34+CD15− (cell counts): 19.65%
% increase CD34+CD15− (%): 70.66%

COc1ccc(-c2cc(=O)c3ccccc3o2)cc1 [UM0070201, 4′-Methoxyflavone]
percent gated cells (viability): 78.10%
% increase CD34+ (%): 28.71%
% increase CD34+ (cell counts): 20.27%
% increase CD34+CD15− (cell counts): 58.22%
% increase CD34+CD15− (%): 69.03%
